This note sets out measurements from patent US12616203B2, “Use of 3-isoxazolidinones compounds as selective herbicides” (FMC Corporation, priority 2014, dated 2026).

Assay [1] deals with Italian ryegrass (IR). Description: Ex2 PRE greenhouse, % control. It counts as in vivo, Lolium perenne. multiflorum. To be noted: 28 DAT, g ai/ha by row: r12-40 2,4-DC 31.25/62.5/125/250/375 (3 rows each) + metazachlor 250/500/750 (cycling). How it is done:
(§1) Test compositions containing 2,4 DC Example 1B and metazachlor (Butisan® S, 43.1% active ingredient, BASF) and mixtures of 2-(2,4-dichlorophenyl)methyl-4,4-dimethyl-3-isoxazolidinone and metazachlor, were diluted with water to provide the appropriate test rate concentrations.
(§2) The test crops were wheat and canola (Brassica napus), the test weeds were Italian ryegrass (IR) (Lolium perenne. multiflorum), annual bluegrass (AB) (Poa annua), common lambsquarters (CL) (Chenopodium album), littleseed canarygrass (LC) (Phalaris minor), common chickweed (CC) (Stellaria media), and corn poppy (CP) (Papaver rhoeas).
For pre-emergence testing, four disposable fiber flats (6″ by 10″) for each rate of application of each herbicide solution were filled with top soil, to which seeds of each species were planted in furrows made by a template pressed on the top of the soil. The furrows were covered with soil after planting the seed and were watered well before application of the test compounds.
Fiber flats designated for treatment were placed in a spray chamber having a static platform and a movable sprayer and height of the spray nozzle was 10.5 inches above the soil level. Once the sprayer was calibrated using water for spray volume of 30 gallons per acre, flats were sprayed with sprayer at a speed to receive a coverage equivalent of 30 gallons per acre. The application rates are those shown in Table 1 below for the individual herbicidal solutions and the herbicide compositions of the present invention. The pre-emergence flats were immediately placed in the greenhouse and watered lightly after treatment. Thereafter they were regularly watered and fertilized for the duration of the test.
The control of weeds was evaluated in each experimental test at 21 days after treatment (DAT) for corn poppy and wheat and 28 DAT for all other species. The results, shown as an average of the replications were compared with results observed in untreated control flats in the same tests.
(§3) Percent control was determined by a method similar to the 0 to 100 rating system disclosed in “Research Methods in Weed Science,” 2nd ed., B. Truelove, Ed.; Southern Weed Science Society; Auburn University, Auburn, Ala., 1977.

In assay [2] the test system is common chickweed (CC). The experiment in a line: Ex2 PRE greenhouse, % control. Type of assay: in vivo, Stellaria media. To be noted: 28 DAT, g ai/ha by row: r12-40 2,4-DC 31.25/62.5/125/250/375 (3 rows each) + metazachlor 250/500/750 (cycling), r42-46 2,4-DC 31.25/62.5/125/250/375, r47-49 metazachlor 250/500/750. Here is the method:
as §1, §2
For pre-emergence testing, four disposable fiber flats (6″ by 10″) for each rate of application of each herbicide solution were filled with top soil, to which seeds of each species were planted in furrows made by a template pressed on the top of the soil. The furrows were covered with soil after planting the seed and were watered well before application of the test compounds. […]
The control of weeds was evaluated in each experimental test at 21 days after treatment (DAT) for corn poppy and wheat and 28 DAT for all other species. […]
as §3

The test system of assay [3] is weeds. The experiment in a line: Ex10 PRE greenhouse. The note with it: 28 DAT, weed and rate in the words. Type of assay: in vivo.
For assay [4], the system named is weeds. Description: Ex16 PRE greenhouse. It counts as in vivo. To be noted: weed and rate in the words. The source says: To determine PRE efficacy, five levels of 2,4 DC (36.7% CS) 0, 125, 170, 210, or 250 g ai/ha and five levels of pyroxasulfone (KIH485-85WG) 0, 50, 65, 80, or 95 g ai/ha were applied either alone or as tank-mix. Additional treatments consisted of premix of pyroxasulfone plus fluthiacet-methyl (Anthem™ 23.3%) at 169.9 g ai/ha, S-metolachlor (Dual II Magnum, 82.4%) at 1388 g, and tank-mix of mesotrione (Callisto, 40%) at 123 g plus S-metolachlor at 1252 g. […] Treatments were applied before the emergence of black nightshade, giant foxtail, green foxtail, yellow foxtail, large crabgrass, kochia, redroot pigweed, common ragweed, and barnyardgrass.
Flats were watered and fertilized routinely after treatment application. Each treatment was replicated three times.

The test system of assay [5] is weeds; Wheat, barley, and oil seed rape (OSR). Description: Ex19 PRE greenhouse. To be noted: rate in the words. Type of assay: in vivo. The source says: In this study, the crops tested included Wheat, barley, and oil seed rape (OSR).
To determine weed efficacy and wheat, barley or OSR selectivity, 2,4 DC (CS 36.7%) and Diflufenican (CS 19.5%) were applied preemergence either alone or as tank-mix partners at the following rates. 2,4 DC was applied at 125, 170, 210 and 250 g ai/ha while Diflufenican was applied at 50, 75, and 100 g ai/ha. Pyroxasulfone (KIH-485, 85%) at 74.3 g ai/ha, pendimethalin (Prowl 3.3EC, 37.4%) at 1200 g ai/ha, or a premix of chlorsulfuron plus metsulfuron-methyl (Report Extra, 75%) at 15.8 g ai/ha were applied as commercial standards.
Herbicides included as standards for comparison were pyroxasulfone, pendimethalin, and a pre mix of chlorsulfuron plus metsulfuron methyl, all applied at labeled rates as indicated above. Treatments were replicated 3 times. […] Thereafter flats were watered and fertilized routinely.

For assay [6], the system named is weeds; sweet corn, yellow corn, and sorghum. Description: Ex31 PRE greenhouse. The note with it: weed and rate in the words. It counts as in vivo. The source says:
Flats were watered and fertilized routinely after treatment application.

Structures are written as SMILES. “Also recorded” adds a separate entry of the source.

As to `CC1(C)CON(Cc2ccc(Cl)cc2Cl)C1=O` [2,4-DC, 2-(2,4-dichlorophenyl)methyl-4,4-dimethyl-3-isoxazolidinone], the “% Control IR” value in assay [1] (r42-46 2,4-DC 31.25/62.5/125/250/375, r47-49 metazachlor 250/500/750, 31.25 g ai/ha) turned out to be 57%; in assay [1] (r42-46 2,4-DC 31.25/62.5/125/250/375, r47-49 metazachlor 250/500/750, 62.5 g ai/ha), 68%; in assay [1] (r42-46 2,4-DC 31.25/62.5/125/250/375, r47-49 metazachlor 250/500/750, 125 g ai/ha), 85%; in assay [1] (r42-46 2,4-DC 31.25/62.5/125/250/375, r47-49 metazachlor 250/500/750, 250 g ai/ha), 98%; in assay [1] (r42-46 2,4-DC 31.25/62.5/125/250/375, r47-49 metazachlor 250/500/750, 375 g ai/ha), 99%. Besides, in assay [2], the “% Control CC” value came out at 100%. For the same molecule, the “weed control in words” value is “alone at 250 g ai/ha controlled common lambsquarters” in assay [3]; “alone controlled kochia at 210 g ai/ha, barnyardgrass and large crabgrass at 125 g, giant foxtail and green foxtail at 170 g” in assay [4]; “alone did not control any weeds except barnyardgrass” in assay [6]. In assay [5], the “weed control / crop safety in words” value is “applied at 125 g ai/ha provided suppression (70-84% injury) to corn poppy, higher rates controlled (≥85% injury) corn poppy; also recorded: Wheat, barley, and oilseed rape (OSR) were safe (≤10% injury) with all stand alone treatments”.
